Experimental data published in the NIST ThermoML archive (doi:10.1016/j.jct.2013.09.008).

Columns and labels:
[1] = wn = mass fraction of the nth substance listed; conditions: 101.33 kPa, Liquid; for speed of sound: Frequency=3 MHz, Linear variable-path acoustic interferometer; for mass density: Pycnometric method; for viscosity: Capillary tube (Ostwald / Ubbelohde) method
[2] = 101.33 kPa, Liquid; for speed of sound: Frequency=3 MHz, Linear variable-path acoustic interferometer; for viscosity: Capillary tube (Ostwald / Ubbelohde) method
[3] = mn = molality of the nth substance listed, in mol/kg; conditions: 101.33 kPa, Liquid, m2 = 0; for speed of sound: Frequency=3 MHz, Linear variable-path acoustic interferometer; for viscosity: Capillary tube (Ostwald / Ubbelohde) method

O=C[C@H](O)[C@@H](O)[C@H](O)[C@H](O)CO [D-glucose] + O
[1]
Conditions | mass density, w1 = 0.025 [kg/m3] | mass density, w1 = 0.05 [kg/m3] | speed of sound, w1 = 0.025 [m/s] | speed of sound, w1 = 0.05 [m/s] | viscosity, w1 = 0.025 [mPa·s] | viscosity, w1 = 0.05 [mPa·s]
293.15 K | – | 1016.28 | 1492.9 | – | – | –
298.15 K | 1005.91 | 1014.69 | – | 1514.3 | 0.9202 | 0.9767
303.15 K | 1004.61 | 1013.08 | 1517.4 | 1525.1 | 0.8167 | 0.8605
308.15 K | 1003.21 | 1011.47 | – | 1535.7 | 0.7324 | 0.7697
313.15 K | 1001.61 | 1009.85 | 1536.9 | 1545.6 | 0.661 | 0.6945
318.15 K | 999.76 | – | – | 1554.5 | 0.6035 | 0.6334

OC[C@H]1O[C@@](CO)(O[C@H]2O[C@H](CO)[C@@H](O)[C@H](O)[C@H]2O)[C@@H](O)[C@@H]1O [D-sucrose] + O
[1]
Conditions | mass density, w1 = 0.025 [kg/m3] | mass density, w1 = 0.05 [kg/m3] | speed of sound, w1 = 0.025 [m/s] | speed of sound, w1 = 0.05 [m/s] | viscosity, w1 = 0.025 [mPa·s] | viscosity, w1 = 0.05 [mPa·s]
293.15 K | 1009.22 | 1018.91 | 1497.2 | 1501.4 | – | –
298.15 K | 1007.51 | 1017.19 | 1511.2 | 1516.5 | 0.9618 | 1.011
303.15 K | 1005.76 | 1015.45 | 1521.5 | 1526.6 | 0.8761 | 0.9129
308.15 K | 1004.05 | 1013.72 | 1532.1 | 1537.7 | 0.7969 | 0.8285
313.15 K | 1002.31 | 1011.98 | 1542.5 | 1547.7 | 0.7057 | 0.7457
318.15 K | 1000.56 | 1010.23 | 1552 | 1557.2 | 0.6624 | 0.6946

O=C[C@H](O)[C@@H](O)[C@@H](O)CO [L-arabinose] + O
[1]
Conditions | mass density, w1 = 0.025 [kg/m3] | mass density, w1 = 0.05 [kg/m3] | speed of sound, w1 = 0.025 [m/s] | speed of sound, w1 = 0.05 [m/s] | viscosity, w1 = 0.025 [mPa·s] | viscosity, w1 = 0.05 [mPa·s]
293.15 K | 1007.35 | 1016.09 | 1491.4 | 1502.3 | – | –
298.15 K | 1005.77 | 1014.44 | 1506.7 | 1516.9 | 0.9141 | 0.9695
303.15 K | 1004.18 | 1012.79 | 1517 | 1526.8 | 0.8116 | 0.8573
308.15 K | 1002.6 | 1011.13 | 1528.6 | 1537.9 | 0.7304 | 0.7658
313.15 K | 1001.01 | 1009.46 | 1536.8 | 1545.7 | 0.6591 | 0.689
318.15 K | 999.43 | 1007.8 | 1543.1 | 1551.8 | 0.6006 | 0.6295

O [water]
[2]
Conditions | speed of sound [m/s] | viscosity [mPa·s]
293.15 K | 1483.6 | –
298.15 K | – | 0.8903
303.15 K | 1508.4 | 0.7973
308.15 K | – | 0.719
313.15 K | 1526.8 | 0.6526
318.15 K | 1533 | 0.5972

O [water] + N[C@@H](Cc1ccccc1)C(=O)O
[3]
Conditions | speed of sound [m/s] | viscosity [mPa·s]
293.15 K | 1483.6 | –
298.15 K | – | 0.8903
303.15 K | 1508.4 | 0.7973
308.15 K | – | 0.719
313.15 K | 1526.8 | 0.6526
318.15 K | 1533 | 0.5972

Conditions | mass density [kg/m3]
[3], 308.15 K, Pycnometric method | 994.07
